The values below come from patent US20160108039A1, “TRIAZOLOPYRIDINES AS THROMBIN INHIBITORS FOR THE TREATMENT OF THROMBOEMBOLIC DISEASES” (BAYER PHARMA AKTIENGESELLSCHAFT, priority 2013, published 2016).

For the test, the target named is thrombin (Homo sapiens, UniProt P00734). Nature of the test: Measurement of the thrombin inhibition in buffer. In kind it is biochemical. The following applies: human thrombin 0.06 nmol/l in Tris buffer pH 7.4, 22° C., substrate Boc-Asp(OBzl)-Pro-Arg-AMC; in some cases means of individual determinations. The procedure: To determine the thrombin inhibition of the substances listed above, a biochemical test system is constructed in which the conversion of a thrombin substrate is used for determining the enzymatic activity of human thrombin. Here, thrombin cleaves aminomethylcoumarin, which is measured fluorescently, from the peptic substrate. The determinations are carried out in microtitre plates.
Substances to be tested are dissolved in various concentrations in dimethyl sulphoxide and incubated for 15 min with human thrombin (0.06 nmol/l dissolved in 50 mmol/l of Tris buffer [C,C,C-tris(hydroxymethyl)aminomethane], 100 mmol/l of sodium chloride, 0.1% BSA [bovine serum albumin], pH 7.4) at 22° C. The substrate (5 μmol/l Boc-Asp(OBzl)-Pro-Arg-AMC from Bachem) is then added. After 30 min of incubation, the sample is excited at a wavelength of 360 nm and the emission is measured at 460 nm. The measured emissions of the test mixtures with test substance are compared to the control mixtures without test substance (only dimethyl sulphoxide instead of test substance in dimethyl sulphoxide) and IC50 values are calculated from the concentration/activity relationships. Representative activity data from this test are given in Table 1 below (in some cases as means of individual determinations): […]

One may read the IC50 as the concentration that gives 50% inhibition. Turning to `COc1cc(C(=O)N2CC(C)OCC2CC(C)(C)O)cn2nc(NCc3cccc(Cl)c3)nc12` (single isomer, unassigned) [Example 44, {2-[(3-Chlorobenzyl)amino]-8-methoxy[1,2,4]triazolo[1,5-a]pyridin-6-yl}[5-(2-hydroxy-2-methylpropyl)-2-methylmorpholin-4-yl]methanone], the IC50 was 29 nM.

`COc1cc(C(=O)N2CC(C)(C)OCC2CC(C)O)cn2nc(NCc3cccc(Cl)c3)nc12` (single isomer, unassigned) [Example 48, {2-[(3-Chlorobenzyl)amino]-8-methoxy[1,2,4]triazolo[1,5-a]pyridin-6-yl}[5-(2-hydroxypropyl)-2,2-dimethylmorpholin-4-yl]methanone]: the IC50 was 39 nM.

`COc1cc(C(=O)N2CC(C)(CC(C)O)OCC2(C)C)cn2nc(NCc3cccc(Cl)c3)nc12` (single isomer, unassigned) [Example 38, {2-[(3-Chlorobenzyl)amino]-8-methoxy[1,2,4]triazolo[1,5-a]pyridin-6-yl}[2-(2-hydroxypropyl)-2,5,5-trimethylmorpholin-4-yl]methanone] came in with a half-maximal inhibitory concentration (IC50) of 2800 nM.

`COc1cc(C(=O)N2CC(C)OCC2CC(C)(C)O)cn2nc(NCc3cccc(Cl)c3)nc12` (single isomer, unassigned) [Example 43, {2-[(3-Chlorobenzyl)amino]-8-methoxy[1,2,4]triazolo[1,5-a]pyridin-6-yl}[5-(2-hydroxy-2-methylpropyl)-2-methylmorpholin-4-yl]methanone] registered an IC50 of 81 nM.

`COc1cc(C(=O)N2CC(C)(CCO)OCC2CF)cn2nc(NCc3cccc(Cl)c3)nc12` (single isomer, unassigned) [Example 51, {2-[(3-Chlorobenzyl)amino]-8-methoxy[1,2,4]triazolo[1,5-a]pyridin-6-yl}[5-(fluoromethyl)-2-(2-hydroxyethyl)-2-methylmorpholin-4-yl]methanone] returned an IC50 of 3500 nM.

`COc1cc(C(=O)N2CC(C)(CCO)OCC2CF)cn2nc(NCc3cccc(Cl)c3)nc12` (single isomer, unassigned) [Example 52, {2-[(3-Chlorobenzyl)amino]-8-methoxy[1,2,4]triazolo[1,5-a]pyridin-6-yl}[5-(fluoromethyl)-2-(2-hydroxyethyl)-2-methylmorpholin-4-yl]methanone] displayed an IC50 of 1200 nM.

On to `COc1cc(C(=O)N2CC(C)OCC2(C)C)cn2nc(NCc3cccc(Cl)c3)nc12` (racemic) [Example 26], for which it took 88 nM to reach half-maximal inhibition (IC50).

`COc1cc(C(=O)N2CC(C)(C)OCC2CC(C)O)cn2nc(NCc3cccc(Cl)c3)nc12` (single isomer, unassigned) [Example 46, {2-[(3-Chlorobenzyl)amino]-8-methoxy[1,2,4]triazolo[1,5-a]pyridin-6-yl}[5-(2-hydroxypropyl)-2,2-dimethylmorpholin-4-yl]methanone]: 190 nM corresponded to half-maximal inhibition (IC50).

`COc1cc(C(=O)N2CC(C)(C)OCC2CF)cn2nc(NCc3cccc(Cl)c3)nc12` (single isomer, unassigned) [Example 13, {2-[(3-Chlorobenzyl)amino]-8-methoxy[1,2,4]triazolo[1,5-a]pyridin-6-yl}[5-(fluoromethyl)-2,2-dimethylmorpholin-4-yl]methanone] registered an IC50 of 420 nM.

Turning to `COc1cc(C(=O)N2CC(C)(CCO)OCC2(C)C)cn2nc(NCc3cccc(Cl)c3)nc12` (single isomer, unassigned) [Example 32, {2-[(3-Chlorobenzyl)amino]-8-methoxy[1,2,4]triazolo[1,5-a]pyridin-6-yl}[2-(2-hydroxyethyl)-2,5,5-trimethylmorpholin-4-yl]methanone], the half-inhibitory concentration (IC50) was 230 nM.

As for `COc1cc(C(=O)N2CC(C)(C)OCC2CC(C)O)cn2nc(NCc3cccc(Cl)c3)nc12` (single isomer, unassigned) [Example 47, {2-[(3-Chlorobenzyl)amino]-8-methoxy[1,2,4]triazolo[1,5-a]pyridin-6-yl}[5-(2-hydroxypropyl)-2,2-dimethylmorpholin-4-yl]methanone], the IC50 turned out to be 180 nM.
